Drawing on patent publication US20230322785A1, “ADENOSINE A2A AND A2B RECEPTOR DUAL ANTAGONISTS FOR IMMUNO-ONCOLOGY” (Merck Sharp & Dohme LLC, priority 2020, published 2023), this text covers IC50 for 27 compounds.

Structures are written as SMILES. pIC50: −log10 of the molar value.

The assay concerns the target T1, human A2A adenosine receptor (Homo sapiens, UniProt P29274).
T1 construct: expressed in transfected cells; host or cells: HEK293 or CHO cells
Description: A2A binding affinity, Method (B): scintillation proximity assay (SPA) with [3H]SCH58261. Particulars: membranes of HEK293 or CHO cells expressing the human receptor. The source says: Method (A) describes the procedure used to measure A2A binding affinity using radioligand binding. Method (B) describes the procedure used to measure A2A binding affinity using SPA technology. The method used to measure A2B binding affinity is also described below. The method used to determine the A2A IC50 value reported for each compound in the table is indicated next to the reported value. The A2B IC50 value measured using the A2B binding affinity assay is shown in the table next to the compound under the corresponding A2A value.
The A2A receptor affinity binding assay measured the amount of binding of a tritiated ligand with high affinity for the A2A adenosine receptor to membranes made from HEK293 or CHO cells recombinantly expressing the human A2A adenosine receptor, in the presence of varying concentrations of a compound of the invention. The data were generated using either filtration binding or a homogenous scintillation proximity assay (SPA).
Method (B): Measurement of A2A Binding Affinity Using SPA
Binding affinity using SPA was conducted as follows. Test compounds (50 nL) were dispensed into individual wells of a 384-well OptiPlate™ well (Perkin Elmer) by Echo® acoustic liquid transfer (Labcyte). 20 µL of 1.25 nM [^3H] SCH58261 ((7-(2-phenylethyl)-5-amino-2-(2-furyl)-pyrazolo-[4,3-e]-1,2,4-triazolo[1,5-c]pyrimidine)) in DPBS assay buffer (Dulbecco’s phosphate buffered saline without calcium and magnesium, ThermoFisher Scientific, Cat. No. A1285601) supplemented with 10 mM MgCl2 was added. A2A receptor-expressing membranes were incubated with 20 µg/mL adenosine deaminase (Roche, Cat. No. 10 102 105 001) for 15 min at room temperature. The receptor-expressing membranes were then combined with wheat germ agglutinin-coated yttrium silicate SPA beads (GE Healthcare, Cat. No. RPNQ0023) in a ratio of […] (w/w) and incubated for 30 min at room temperature. 30 µL of the membrane/bead mixture (0.25 µg and 25 µg per well respectively) were added to the 384-well OptiPlate™ well. To define total and non-specific binding, wells containing 1% DMSO or 1 µM CGS 15943 (Tocris Bioscience, Cat. No. 1699) respectively were also included in the experiment. The plate was incubated for 1 h at room temperature with agitation. The assay plate was then incubated for an h to allow the beads to settle before data were collected using a TopCount® (Perkin Elmer) scintillation counter. After normalization to total and non-specific binding, the percent effect at each compound concentration was calculated. The plot of percent effect versus the log of compound concentration was analyzed electronically using a 4-parameter logistic fit based on the Levenberg-Marquardt algorithm to generate IC50 values.

T1 sequence (P29274 whole entry): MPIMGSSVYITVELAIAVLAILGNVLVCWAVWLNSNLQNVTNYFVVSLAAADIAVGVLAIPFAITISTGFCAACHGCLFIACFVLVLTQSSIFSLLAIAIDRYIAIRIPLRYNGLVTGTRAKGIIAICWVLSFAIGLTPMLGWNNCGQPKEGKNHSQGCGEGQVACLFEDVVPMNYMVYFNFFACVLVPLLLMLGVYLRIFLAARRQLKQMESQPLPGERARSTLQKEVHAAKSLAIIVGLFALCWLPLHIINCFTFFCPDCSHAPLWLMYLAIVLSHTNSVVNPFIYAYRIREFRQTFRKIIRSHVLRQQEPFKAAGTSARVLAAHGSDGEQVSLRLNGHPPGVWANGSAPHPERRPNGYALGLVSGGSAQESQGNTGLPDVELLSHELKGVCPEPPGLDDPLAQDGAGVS

For `COc1cccc2c1nc(N)n1nc(CN(CC(C)F)CC(C)F)nc21` (stereo not drawn) [Example 13.1, 2-((bis(2-fluoropropyl)amino)methyl)-7-methoxy-[1,2,4]triazolo[1,5-c]quinazolin-5-amine], the pIC50 is 8.48.

Take `COc1cccc2c1nc(N)n1nc(CCN(C)Cc3ccc(C(F)(F)F)cc3)nc21` [Example 22.5, 7-methoxy-2-(2-(methyl(4-(trifluoromethyl)benzyl)amino)ethyl)-[1,2,4]triazolo[1,5-c]quinazolin-5-amine]: the pIC50 was 8.39.

In turn, `COc1cccc2c1nc(N)n1nc(CC(=O)NCc3ccc(OC(F)(F)F)cc3)nc21` [Example 4.5, 2-(5-amino-7-methoxy-[1,2,4]triazolo[1,5-c]quinazolin-2-yl)-N-(4-(trifluoromethoxy)benzyl)acetamide] showed a negative-log IC50 (pIC50) of 8.24.

For `COc1cccc2c1nc(N)n1nc(CN(C)Cc3ccc(C(F)(F)F)cc3)nc21` [Example 8.3, 7-methoxy-2-((methyl(4-(trifluoromethyl)benzyl)amino)methyl)-[1,2,4]triazolo[1,5-c]quinazolin-5-amine], the negative-log IC50 (pIC50) was 8.19.

Consider `COc1cccc2c1nc(N)n1nc(CNC(=O)CCc3ccccc3)nc21` [Example 2.2, N-((5-amino-7-methoxy-[1,2,4]triazolo[1,5-c]quinazolin-2-yl)methyl)-3-phenylpropanamide], for which the negative logarithm of the IC50 (pIC50) is 7.90. Compared with the last compound, the pIC50 is 0.29 log units lower.

Consider `COc1ccc(CCC(=O)NCc2nc3c4cccc(OC)c4nc(N)n3n2)cc1` [Example 2.4], for which the pIC50 is 8.12. Compared with the last compound, the pIC50 is 0.22 log units higher.

As to `COc1cccc2c1nc(N)n1nc(CN(Cc3ccc(C(F)(F)F)cc3)S(=O)(=O)C3CC3)nc21` [Example 19.5, N-((5-amino-7-methoxy-[1,2,4]triazolo[1,5-c]quinazolin-2-yl)methyl)-N-(4-(trifluoromethyl)benzyl)cyclopropanesulfonamide], the pIC50 was 7.75.

Compound `CCN(Cc1nc2c3cccc(OC)c3nc(N)n2n1)CC1CCN(c2ncc(F)cn2)CC1` [Example 15.16, 2-((ethyl((1-(5-fluoropyrimidin-2-yl)piperidin-4-yl)methyl)amino)methyl)-7-methoxy-[1,2,4]triazolo[1,5-c]quinazolin-5-amine] showed a negative logarithm of the IC50 (pIC50) of 7.51.

`COc1cccc2c1nc(N)n1nc(CN[C@@H](C)C(F)(F)F)nc21` [Example 10.9] had a negative logarithm of the IC50 (pIC50) of 8.23.

Compound `COc1cccc2c1nc(N)n1nc(CN(Cc3ccc(OC(F)(F)F)cc3)CC3CCCCC3)nc21` [Example 15.11, 2-(((cyclohexylmethyl)(4-(trifluoromethoxy)benzyl)amino)methyl)-7-methoxy-[1,2,4]triazolo[1,5-c]quinazolin-5-amine] gave a pIC50 of 6.91.

Compound `COCCN(Cc1ccc(C(F)(F)F)cc1)Cc1nc2c3cccc(OC)c3nc(N)n2n1` [Example 15.15, 7-methoxy-2-(((2-methoxyethyl)(4-(trifluoromethyl)benzyl)amino)methyl)-[1,2,4]triazolo[1,5-c]quinazolin-5-amine] had a negative logarithm of the IC50 (pIC50) of 8.18.

`CCN(Cc1ccc(OC(F)(F)F)cc1)Cc1nc2c3cccc(OC)c3nc(N)n2n1` [Example 15.8, 2-((ethyl(4-(trifluoromethoxy)benzyl)amino)methyl)-7-methoxy-[1,2,4]triazolo[1,5-c]quinazolin-5-amine] gave a negative-log IC50 (pIC50) of 8.49.

In turn, `COc1cccc2c1nc(N)n1nc(CNCc3ccc(Br)cc3)nc21` [Example 7.9, 2-(((4-bromobenzyl)amino)methyl)-7-methoxy-[1,2,4]triazolo[1,5-c]quinazolin-5-amine] showed a negative-log IC50 (pIC50) of 8.27.

Compound `COc1cccc2c1nc(N)n1nc(CN(Cc3ccnc4[nH]ccc34)CC3CC3)nc21` [Example 16.10, 2-((((1H-pyrrolo[2,3-b]pyridin-4-yl)methyl)(cyclopropylmethyl)amino)methyl)-7-methoxy-[1,2,4]triazolo[1,5-c]quinazolin-5-amine] gave a pIC50 of 8.64.

Turning to `COc1cccc2c1nc(N)n1nc(CNC(C)(C)c3cccnc3)nc21` [Example 7.5, 7-methoxy-2-(((2-(pyridin-3-yl)propan-2-yl)amino)methyl)-[1,2,4]triazolo[1,5-c]quinazolin-5-amine], the pIC50 is 7.69.

For the compound `COc1cccc2c1nc(N)n1nc(CNC(=O)CCc3cccc(C(F)(F)F)c3)nc21` [Example 2.5], the pIC50 was 7.59. The pIC50 values of the last two compounds are within 0.2 log units of each other.

With `COc1cccc2c1nc(N)n1nc(CNC(C)(C)c3ccccn3)nc21` [Example 7.3, 7-methoxy-2-(((2-(pyridin-2-yl)propan-2-yl)amino)methyl)-[1,2,4]triazolo[1,5-c]quinazolin-5-amine], the pIC50 was 7.73.

Compound `COc1cccc2c1nc(N)n1nc(CN(CC3CC3)C3CN(C(=O)OC(C)(C)C)C3)nc21` [Example 16.12, tert-butyl 3-(((5-amino-7-methoxy-[1,2,4]triazolo[1,5-c]quinazolin-2-yl)methyl)(cyclopropylmethyl)amino)azetidine-1-carboxylate] gave a pIC50 of 8.24.

As to `COc1cccc2c1nc(N)n1nc(CN(Cc3ccc(-c4ccccn4)cc3)CC3CC3)nc21` [Example 16.13, 2-(((cyclopropylmethyl)(4-(pyridin-2-yl)benzyl)amino)methyl)-7-methoxy-[1,2,4]triazolo[1,5-c]quinazolin-5-amine], the pIC50 is 8.59.

`COc1cccc2c1nc(N)n1nc(CN(Cc3ccc(OC(F)(F)F)cc3)C(=O)NC(C)C)nc21` [Example 20.3, 1-((5-amino-7-methoxy-[1,2,4]triazolo[1,5-c]quinazolin-2-yl)methyl)-3-isopropyl-1-(4-(trifluoromethoxy)benzyl)urea] had a negative-log IC50 (pIC50) of 7.65.

Regarding `COc1cccc2c1nc(N)n1nc(C[C@@H](C)NCc3oc(C)nc3C)nc21` [Example 24.3, (R)-2-(2-(((2,4-dimethyloxazol-5-yl)methyl)amino)propyl)-7-methoxy-[1,2,4]triazolo[1,5-c]quinazolin-5-amine], the pIC50 is 7.95.

For `COc1cccc2c1nc(N)n1nc(CC(=O)N[C@H]3CCOc4cc(F)ccc43)nc21` [Example 4.7, (S)-2-(5-amino-7-methoxy-[1,2,4]triazolo[1,5-c]quinazolin-2-yl)-N-(7-fluorochroman-4-yl)acetamide], the pIC50 was 8.17. This pIC50 is 0.22 log units higher than that of the compound before.

With `COc1cccc2c1nc(N)n1nc(CNCCc3ccc(C(F)(F)F)cc3)nc21` [Example 8.8], the negative logarithm of the IC50 (pIC50) was 7.76.

The compound `CCN(Cc1ccccn1)Cc1nc2c3cccc(OC)c3nc(N)n2n1` [Example 7.4, 2-((ethyl(pyridin-2-ylmethyl)amino)methyl)-7-methoxy-[1,2,4]triazolo[1,5-c]quinazolin-5-amine] had a pIC50 of 7.50.

With `COc1cccc2c1nc(N)n1nc(CCN[C@H](C)C(F)(F)F)nc21` [Example 23.4, (R)-7-methoxy-2-(2-((1,1,1-trifluoropropan-2-yl)amino)ethyl)-[1,2,4]triazolo[1,5-c]quinazolin-5-amine], the pIC50 is 8.24.

Consider `COCCN(CCc1ccc(C(F)(F)F)cc1)Cc1nc2c3cccc(OC)c3nc(N)n2n1` [Example 15.14, 7-methoxy-2-(((2-methoxyethyl)(4-(trifluoromethyl)phenethyl)amino)methyl)-[1,2,4]triazolo[1,5-c]quinazolin-5-amine], for which the pIC50 is 7.78.

`COc1cccc2c1nc(N)n1nc(CN(CCC(C)C)Cc3ccc(C(F)(F)F)cc3)nc21` [Example 15.5, 2-((isopentyl(4-(trifluoromethyl)benzyl)amino)methyl)-7-methoxy-[1,2,4]triazolo[1,5-c]quinazolin-5-amine] gave a pIC50 of 7.00.
